In one test the test system is MRSA-1. In words: Sensitivity test (MIC, broth dilution per CLSI). The class given is cell-based, Methicillin-resistant S. aureus. Particulars: strain MRSA-1, MHB with 2% NaCl, 34° C., 24 hours, minimum concentration without colony growth. As to the method:
(§1) By referring to the methods and standards of the American Clinical and Laboratory Standards Institute (CLSI) for antimicrobial susceptibility testing, the drug resistance of each strain was verified. The MHB medium used in this test contained 2% NaCl (w/v).
(§2) Preparation of test bacteria: each bacterium was respectively inoculated in 5 ml MHB medium, and cultured overnight at 37° C. on a shaker. The bacterial solution was adjusted to 0.5 McFarland turbidity (MCF) unit, and further diluted by 100 folds. The final bacterial concentration was 5×10^5 cfu/ml.
(§3) Preparation of the flavonoids extract of C. paliurus leaves for application: 79.8 mg powder of the flavonoid extract from C. paliurus leaves prepared in Example 1 (based on the flavonoids proportion of 67.3581 wt. % in the flavonoids extract of C. paliurus leaves, the amount of flavonoids in the powder was 53.75 mg) was dissolved in 0.32 ml of DMSO, and further diluted with 3.68 ml MHB medium, to obtain the application solution of C. paliurus leaf with a flavonoids concentration at 13.44 mg/ml.
(§4) 100 μl of medium was added into the second well, and serial 2-fold dilutions were prepared until to the ninth well. The 10th well was set as the medium control.
(§5) Sensitivity test: 100 μl of the bacterial solution prepared above was added to the wells with serial concentration of drugs and the medium control. The plate was placed in a humidified box and incubated at 34° C. for 24 hours. 20 μl of each bacterial solution was taken and diluted 50 times with the medium, then 100 μl of the diluted bacterial solution was spread on the culture plate and incubated overnight at 37° C. The minimum drug concentration without colony growth was determined as the minimum inhibitory concentration (MIC).
In general terms: Dilution methods test growth across graded concentrations, often in twofold steps.

The test system of another test is MRSA-2. In words: Sensitivity test (MIC, broth dilution per CLSI). Particulars: strain MRSA-2, MHB with 2% NaCl, 34° C., 24 hours, minimum concentration without colony growth. It is filed as cell-based, Methicillin-resistant S. aureus. As to the method:
as §1, §2, §3, §4, §5

In another test the test system is MRSA-3. In words: Sensitivity test (MIC, broth dilution per CLSI). The class given is cell-based, Methicillin-resistant S. aureus. Particulars: strain MRSA-3, MHB with 2% NaCl, 34° C., 24 hours, minimum concentration without colony growth. Here is the method:
as §1, §2, §3, §4, §5

A further test concerns MRSA-5. The test is described as follows: Sensitivity test (MIC, broth dilution per CLSI). It is filed as cell-based, Methicillin-resistant S. aureus. Particulars: strain MRSA-5, MHB with 2% NaCl, 34° C., 24 hours, minimum concentration without colony growth. As to the method:
as §1, §2, §3, §4, §5

Another test has as its system MRSA strains. The test is described as follows: Sensitivity test, MRSA strains compared with ATCC25923. The class given is cell-based, Methicillin-resistant S. aureus. Particulars: each MRSA strain vs ATCC25923. As to the method:
as §1, §2
(§6) Preparation of the flavonoids extract of C. paliurus leaves for application: 79.8 mg powder of the flavonoid extract from C. paliurus leaves prepared in Example 1 (based on the flavonoids proportion of 67.3581 wt. % in the flavonoids extract of C. paliurus leaves, the amount of flavonoids in the powder was 53.75 mg) was dissolved in 0.32 ml of DMSO, and further diluted with 3.68 ml MHB medium, to obtain the application solution of C. paliurus leaf with a flavonoids concentration at 13.44 mg/ml. […]
(§7) Sensitivity test: 100 μl of the bacterial solution prepared above was added to the wells with serial concentration of drugs and the medium control. […] The minimum drug concentration without colony growth was determined as the minimum inhibitory concentration (MIC).

The subject of the next test is S. aureus ATCC25923. In words: Sensitivity test (MIC, broth dilution per CLSI). The class given is cell-based. Particulars: strain ATCC25923, MHB with 2% NaCl, 34° C., 24 hours, minimum concentration without colony growth. As to the method:
as §1, §2, §6, §7

The next test relates to MRSA-4. In words: Sensitivity test (MIC, broth dilution per CLSI). It is filed as cell-based, Methicillin-resistant S. aureus. Particulars: Staphylococcus aureus; strain MRSA-4; MHB with 2% NaCl, 34° C., 24 hours; minimum concentration without colony growth.
The mark [1] stands for this setting: Staphylococcus aureus, read-out: MIC.

The values that follow come from patent US12605419B2, “Flavonoid extract of Cyclocarya paliurus leaves and antibacterial drugs and/or antibacterial agents containing thereof” (priority 2020, dated 2026).

In general, MIC refers to the lowest concentration found to suppress growth.

SMILES strings stand for the structures. Where two headings read alike, the source gives them in different places.

Description for MRSA-4: Sensitivity test: 100 μl of the bacterial solution prepared above was added to the wells with serial concentration of drugs and the medium control. The plate was placed in a humidified box and incubated at 34° C. for 24 hours. […] The minimum drug concentration without colony growth was determined as the minimum inhibitory concentration (MIC).

`Cc1onc(-c2ccccc2)c1C(=O)N[C@@H]1C(=O)N2[C@@H]1SC(C)(C)[C@@H]2C(=O)[O-].[Na+]` [oxacillin sodium]: the minimum inhibitory concentration (MIC) against MRSA-1 turned out to be 0.5 µg/mL; in the test with MRSA-2, 0.5 µg/mL; in the test on MRSA-3 it was 0.5 µg/mL; against MRSA-5 it was 0.5 µg/mL; with S. aureus ATCC25923 it was 0.125 µg/mL. Moreover, the “Sensitivity of each MRSA strain compared with S. aureus ATCC25923” value with MRSA strains is “lower than that of the standard strain of S. aureus ATCC25923”.
As for `CC1(C)S[C@@H]2[C@H](NC(=O)Cc3ccccc3)C(=O)N2[C@H]1C(=O)O` [penicillin sodium], the minimum inhibitory concentration (MIC) in the test on MRSA-1 (setting [1]) is 4 µg/mL; in the test on MRSA-2 (setting [1]) it was 1 µg/mL; in the test with MRSA-3 (setting [1]), 1 µg/mL; in the test on MRSA-5 (setting [1]) it was 4 µg/mL; in the test with S. aureus ATCC25923 (setting [1]), 0.0312 µg/mL; against MRSA-4, 32 µg/mL. In addition, in the test on MRSA strains, the “Sensitivity of each MRSA strain compared with S. aureus ATCC25923” value is “lower than that of the standard strain of S. aureus ATCC25923”.
